Laboratory results reported in patent US20250134855A1, “CO[…] AND METHODS OF USING SAME” (LYKOS THERAPEUTICS, INC., priority 2022, published 2025).
Read-outs that look alike come from different tables or passages of the source.

How the values were obtained:
[1] = Study MPKF: plasma pharmacokinetics of MDMA and MDA, single 120 mg MDMA·HCl, fasted/fed; type: in vivo, human; conditions: for Tmax: median; for concentration at 0.5 h: .5 h
Text: The MPKF was a Phase 1, open-label, randomized sequence, multi-dose, 2-period crossover food effect study in 16 healthy individuals. The MPKF study evaluated plasma concentrations of both MDMA and the active metabolite 3,4-methylenedioxyamphetamine (MDA). Summary PK Parameters of the preliminary data was based on interim analysis are presented in Table 12 Table 12 Table 12, and Table 13 Table 13 Table 13 for MDMA and MDA, respectively.
Participants were randomized to receive 1 of 2 conditions before the other: • Fasted Treatment: at least 10 hours of fasting followed by administration of MDMA HCl with 240 mL water. • Fed Treatment: at least 10 hours of fasting followed by a high-fat (approximately 50% of total caloric content of the meal) and high-calorie (approximately 800 to 1000 calories) meal was consumed within 30 minutes prior to IMP administration.
Participants remained at the clinical research unit (CRU) for each Dosing Session from the time of check-in on the night before dosing until discharge 48 hours after dosing for collection of serial blood samples for PK analysis and safety monitoring. IMP was administered on Day 1 following the treatment sequence to which the participant was randomized. An additional outpatient visit occurred 72 hours after dosing to collect a final PK sample, commensurate with the expected PK profiles of MDMA and MDA. Safety assessments were also performed at this visit.
The washout period between Dosing Sessions was at least 14 days. If a participant experienced emesis within 4 hours of administration, they were to be withdrawn from the study and replaced with a new participant. An End of Study Visit was performed 2 to 10 days after the completion of the final Dosing Session 72-hour follow-up. An informal interim analysis was planned to be conducted after at least 5 participants completed at least 1 Dosing Session to examine PK variability.
The API was a white crystalline powder of pharmaceutical quality, made according to current Good Manufacturing Practices (cGMP) for human use.
Participants: Sixteen healthy individuals were recruited for the study.
Intervention: The study was conducted as a Phase 1, open-label, randomized sequence, multi-dose, 2-period crossover food effect study. Each participant received multiple doses of MDMA, and plasma concentrations of both MDMA and the active metabolite MDA were measured.
Sample Collection: Blood samples were collected at various time points up to 72 hours after dosing. The samples were analyzed using validated liquid chromatography-tandem mass spectrometry (LC-MS/MS) methods.
Data Analysis: The summary PK parameters were presented in Table 12 for MDMA and Table 13 for MDA. The data were analyzed using descriptive statistics, and the mean and standard deviation were calculated. The results were compared between the two periods and analyzed for food effects. Statistical analyses were performed using appropriate methods, such as analysis of variance (ANOVA) and paired t-tests. A p-value of less than 0.05 was considered statistically significant.

healthy individuals = assay: Study MPKF: SE scores and C-SSRS; parameters: species or system human; conditions: in vivo
Procedure: Those increases from baseline were observed between 0.5 to 4 hours after dosing. […] The other scores remained relatively stable in comparison to baseline across the sessions.

[2] = target: bile salt export pump (BSEP) (Homo sapiens, UniProt O95342); assay: Transporter inhibition, BSEP
OATP1B1 = OATP1B1 (Homo sapiens, UniProt Q9Y6L6); assay: Transporter substrate assessment, OATP1B1
[3] = Fasted N = 15, 120 mg MDMA·HCl, preliminary
[4] = Fasted N = 15, 120 mg MDMA·HCl, preliminary, arithmetic mean
[5] = Fed N = 11, 120 mg MDMA·HCl, preliminary
[6] = Fed N = 11, 120 mg MDMA·HCl, preliminary, arithmetic mean
[7] = human, plasma, oral, 120 mg, fasted treatment group, read-out: PK plasma concentration, Geom. Mean
[8] = human, plasma, oral, 120 mg, fasted treatment group, read-out: PK plasma concentration, Mean
[9] = human, plasma, oral, 120 mg, fasted treatment group, read-out: PK plasma concentration, Median
[10] = human, plasma, oral, 120 mg, fed treatment group, read-out: PK plasma concentration, Geom. Mean
[11] = human, plasma, oral, 120 mg, fed treatment group, read-out: PK plasma concentration, Mean
[12] = human, plasma, oral, 120 mg, fed treatment group, read-out: PK plasma concentration, Median

OATP1B1, sequence (Q9Y6L6 whole entry): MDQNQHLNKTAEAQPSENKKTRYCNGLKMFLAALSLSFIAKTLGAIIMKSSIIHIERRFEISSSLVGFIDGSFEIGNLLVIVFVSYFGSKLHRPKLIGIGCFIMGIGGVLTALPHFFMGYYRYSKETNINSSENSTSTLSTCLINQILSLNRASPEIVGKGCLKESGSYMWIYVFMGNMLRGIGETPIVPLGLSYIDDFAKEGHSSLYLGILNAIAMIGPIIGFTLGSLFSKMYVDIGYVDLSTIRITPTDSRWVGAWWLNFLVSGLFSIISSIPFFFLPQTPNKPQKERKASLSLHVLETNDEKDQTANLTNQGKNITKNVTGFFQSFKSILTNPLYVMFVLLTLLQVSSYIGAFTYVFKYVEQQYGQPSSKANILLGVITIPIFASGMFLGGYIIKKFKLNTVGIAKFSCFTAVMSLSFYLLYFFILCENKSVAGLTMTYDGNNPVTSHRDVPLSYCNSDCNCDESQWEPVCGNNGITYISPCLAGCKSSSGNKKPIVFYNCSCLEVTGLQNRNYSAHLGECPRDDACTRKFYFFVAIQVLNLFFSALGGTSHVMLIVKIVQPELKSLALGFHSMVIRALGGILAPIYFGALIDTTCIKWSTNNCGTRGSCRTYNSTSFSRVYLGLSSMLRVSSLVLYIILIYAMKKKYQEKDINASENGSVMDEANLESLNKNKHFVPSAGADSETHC
bile salt export pump (BSEP), sequence (O95342 whole entry): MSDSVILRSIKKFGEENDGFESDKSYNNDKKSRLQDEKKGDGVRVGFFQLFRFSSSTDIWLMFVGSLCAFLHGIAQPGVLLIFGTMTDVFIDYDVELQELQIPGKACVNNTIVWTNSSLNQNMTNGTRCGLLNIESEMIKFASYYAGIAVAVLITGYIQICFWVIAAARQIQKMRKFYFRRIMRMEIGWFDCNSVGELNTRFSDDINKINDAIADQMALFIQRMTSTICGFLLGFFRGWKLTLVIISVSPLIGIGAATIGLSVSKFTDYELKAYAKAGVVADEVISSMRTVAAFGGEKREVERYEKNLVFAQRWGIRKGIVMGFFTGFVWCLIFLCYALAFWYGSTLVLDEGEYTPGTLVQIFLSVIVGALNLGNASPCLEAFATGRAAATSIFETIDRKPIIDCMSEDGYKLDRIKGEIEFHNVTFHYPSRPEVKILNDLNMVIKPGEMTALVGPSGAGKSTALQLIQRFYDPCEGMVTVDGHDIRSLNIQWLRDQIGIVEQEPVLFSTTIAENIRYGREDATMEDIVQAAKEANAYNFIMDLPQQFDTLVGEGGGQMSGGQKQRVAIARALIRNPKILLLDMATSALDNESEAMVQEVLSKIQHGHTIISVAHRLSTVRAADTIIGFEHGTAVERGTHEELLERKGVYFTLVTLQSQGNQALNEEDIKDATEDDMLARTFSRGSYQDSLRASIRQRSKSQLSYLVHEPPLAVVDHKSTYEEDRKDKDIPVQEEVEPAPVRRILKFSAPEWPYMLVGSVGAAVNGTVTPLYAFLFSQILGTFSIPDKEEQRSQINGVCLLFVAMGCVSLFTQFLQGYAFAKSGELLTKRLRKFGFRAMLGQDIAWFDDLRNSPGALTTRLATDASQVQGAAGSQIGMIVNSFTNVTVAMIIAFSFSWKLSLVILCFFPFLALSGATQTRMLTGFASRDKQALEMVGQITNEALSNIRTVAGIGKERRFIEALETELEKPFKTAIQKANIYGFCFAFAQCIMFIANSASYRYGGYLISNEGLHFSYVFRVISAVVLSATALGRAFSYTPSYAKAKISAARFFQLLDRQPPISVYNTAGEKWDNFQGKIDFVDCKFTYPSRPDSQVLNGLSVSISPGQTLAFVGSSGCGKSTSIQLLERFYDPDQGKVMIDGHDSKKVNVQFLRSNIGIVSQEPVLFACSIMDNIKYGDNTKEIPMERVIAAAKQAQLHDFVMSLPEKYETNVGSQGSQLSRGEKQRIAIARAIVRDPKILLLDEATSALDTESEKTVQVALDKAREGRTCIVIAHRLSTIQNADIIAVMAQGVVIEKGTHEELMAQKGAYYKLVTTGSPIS

For CNC(C)Cc1ccc2c(c1)OCO2 (centres unmarked) [MDMA, 3,4-methylenedioxymethamphetamine], the “higher plasma PK values in intermediate relative to normal CYP2D6 metabolizers” value ([1]; 8 intermediate, 8 normal metabolizers) was “approximately 26%”, the “Cmax, Geometric LSM” value ([1]; Fasted) was 238 ng/mL and the Tlag [1, 3] was 0.6 h. It also gave a CL/F [1, 4] of 29.5 L/h, a Cmax [1, 4] of 238 ng/mL and a Tmax [1, 3] of 2 h. For the same molecule, the “AUC0-inf, Geometric LSM” value ([1]; Fed) was 3357 ng·h/mL, the “Cmax, Geometric LSM” value ([1]; Fed) was 229 ng/mL and the Tlag [1, 5] was 0.7 h. For the same molecule, the AUC(0-inf) [1, 6] was 3318 ng·h/mL, the CL/F [1, 6] was 30.1 L/h and the Cmax [1, 6] was 227 ng/mL. It also gave a Tmax [1, 5] of 4 h, a Cmax ([1]; both sexes, human, plasma, oral, single 120 mg dose of MDMA·HCl, fasting healthy males and females, read-out: Cmax) of 261 ng/mL and a Cmax ([1]; both sexes, human, plasma, po, single 120 mg dose of MDMA·HCl, fasting healthy males and females, read-out: Cmax) of 261 ng/mL. For the same molecule, the “AUC0-72, Geometric Mean Ratio” value ([1]; fed vs fasted) was 0.99, the “AUC0-inf, Geometric Mean Ratio” value ([1]; fed vs fasted) was 0.99 and the “AUC0-t, Geometric Mean Ratio” value ([1]; fed vs fasted) was 1.00. The “Cmax, Geometric Mean Ratio” value ([1]; fed vs fasted) was 0.97, the “dose proportionality of pharmacokinetics” value ([1]; higher than dose proportional increases, auto-inhibition of CYP2D6) was “non-linear” and the AUC(0-t) ([1]; human, plasma, oral, 120 mg, Fasted, read-out: AUC0-72, Geometric LSM) was 3360 ng·h/mL. The AUC(0-inf) ([1]; human, plasma, oral, 120 mg, Fasted, read-out: AUC0-inf, Geometric LSM) was 3380 ng·h/mL, the AUC(0-t) ([1]; human, plasma, oral, 120 mg, Fasted, read-out: AUC0-t, Geometric LSM) was 3120 ng·h/mL and the AUC(0-t) ([1]; human, plasma, oral, 120 mg, Fed, read-out: AUC0-72, Geometric LSM) was 3340 ng·h/mL. For the same molecule, the AUC(0-t) ([1]; human, plasma, oral, 120 mg, Fed, read-out: AUC0-t, Geometric LSM) was 3110 ng·h/mL, the half-life ([1]; human, plasma, oral, 120 mg, both fed and fasted groups, read-out: mean elimination half-life) was 8 to 9 h and the concentration at 1 h [1, 7] was 111 ng/mL. It also gave a concentration at 1 h [1, 8] of 111 ng/mL, a concentration at 1 h [1, 9] of 124 ng/mL and a concentration at 2 h [1, 7] of 186 ng/mL. It also gave a concentration at 2 h [1, 8] of 210 ng/mL, a concentration at 2 h [1, 9] of 211 ng/mL and a concentration at 4 h [1, 7] of 219 ng/mL. The concentration at 4 h [1, 8] was 225 ng/mL, the concentration at 4 h [1, 9] was 218 ng/mL and the concentration at 6 h [1, 7] was 188 ng/mL. It also gave a concentration at 6 h [1, 8] of 193 ng/mL, a concentration at 6 h [1, 9] of 199 ng/mL and a concentration at 8 h [1, 7] of 160 ng/mL. The concentration at 8 h [1, 8] was 166 ng/mL, the concentration at 8 h [1, 9] was 165 ng/mL and the concentration at 12 h [1, 7] was 111 ng/mL. It also gave a concentration at 12 h [1, 8] of 118 ng/mL, a concentration at 12 h [1, 9] of 120 ng/mL and a concentration at 24 h [1, 7] of 44.2 ng/mL. It also gave a concentration at 24 h [1, 8] of 50.1 ng/mL, a concentration at 24 h [1, 9] of 53.6 ng/mL and a concentration at 48 h [1, 7] of 12.3 ng/mL. It also gave a concentration at 48 h [1, 8] of 7.61 ng/mL, a concentration at 48 h [1, 9] of 6.5 ng/mL and a concentration at 72 h [1, 7] of 6.25 ng/mL. It also gave a concentration at 72 h [1, 8] of 0.417 ng/mL, a concentration at 72 h [1, 9] of 0 ng/mL and a concentration at 0.5 h [1, 7] of 39.3 ng/mL. The concentration at 0.5 h [1, 8] was 23.1 ng/mL, the concentration at 0.5 h [1, 9] was 0 ng/mL and the concentration at 1 h [1, 10] was 46.2 ng/mL. For the same molecule, the concentration at 1 h [1, 11] was 59.8 ng/mL, the concentration at 1 h [1, 12] was 47.4 ng/mL and the concentration at 2 h [1, 10] was 118 ng/mL. For the same molecule, the concentration at 2 h [1, 11] was 129 ng/mL, the concentration at 2 h [1, 12] was 132 ng/mL and the concentration at 4 h [1, 10] was 222 ng/mL. It also gave a concentration at 4 h [1, 11] of 228 ng/mL, a concentration at 4 h [1, 12] of 224 ng/mL and a concentration at 6 h [1, 10] of 208 ng/mL. It also gave a concentration at 6 h [1, 11] of 215 ng/mL, a concentration at 6 h [1, 12] of 208 ng/mL and a concentration at 8 h [1, 10] of 173 ng/mL. It also gave a concentration at 8 h [1, 11] of 181 ng/mL, a concentration at 8 h [1, 12] of 180 ng/mL and a concentration at 12 h [1, 10] of 120 ng/mL. The concentration at 12 h [1, 11] was 129 ng/mL, the concentration at 12 h [1, 12] was 132 ng/mL and the concentration at 24 h [1, 10] was 42 ng/mL. The concentration at 24 h [1, 11] was 50.5 ng/mL, the concentration at 24 h [1, 12] was 41.4 ng/mL and the concentration at 48 h [1, 10] was 14.2 ng/mL. The concentration at 48 h [1, 11] was 7.41 ng/mL, the concentration at 48 h [1, 12] was 0 ng/mL and the concentration at 72 h [1, 10] was 11.3 ng/mL. The concentration at 72 h [1, 11] was 0.81 ng/mL, the concentration at 72 h [1, 12] was 0 ng/mL and the concentration at 0.5 h [1, 10] was 18.5 ng/mL. For the same molecule, the concentration at 0.5 h [1, 11] was 10.2 ng/mL, the concentration at 0.5 h [1, 12] was 4.12 ng/mL and the Vd/F ([1]; human, plasma, po, 120 mg, Fasted N = 15, 120 mg MDMA·HCl, preliminary, arithmetic mean) was 372 L. It also gave an AUC(0-t) ([1]; human, plasma, po, 120 mg, Fasted N = 15, 120 mg MDMA·HCl, preliminary, arithmetic mean, read-out: AUC0-72) of 3370 ng·h/mL, an AUC(0-inf) ([1]; human, plasma, po, 120 mg, Fasted N = 15, 120 mg MDMA·HCl, preliminary, arithmetic mean, read-out: AUC0-inf) of 3390 ng·h/mL and an AUC(0-t) ([1]; human, plasma, po, 120 mg, Fasted N = 15, 120 mg MDMA·HCl, preliminary, arithmetic mean, read-out: AUC0-t) of 3120 ng·h/mL. For the same molecule, the half-life ([1]; human, plasma, po, 120 mg, Fasted N = 15, 120 mg MDMA·HCl, preliminary, arithmetic mean, read-out: t1/2 (converted)) was 8.7 h, the Vd/F ([1]; human, plasma, po, 120 mg, Fed N = 11, 120 mg MDMA·HCl, preliminary, arithmetic mean) was 349 L and the AUC(0-t) ([1]; human, plasma, po, 120 mg, Fed N = 11, 120 mg MDMA·HCl, preliminary, arithmetic mean, read-out: AUC0-72) was 3300 ng·h/mL. For the same molecule, the AUC(0-t) ([1]; human, plasma, po, 120 mg, Fed N = 11, 120 mg MDMA·HCl, preliminary, arithmetic mean, read-out: AUC0-t) was 3060 ng·h/mL, the half-life ([1]; human, plasma, po, 120 mg, Fed N = 11, 120 mg MDMA·HCl, preliminary, arithmetic mean, read-out: t1/2 (converted)) was 8 h and the AUC(0-inf) ([1]; human, plasma, po, 120 mg, single 120 mg dose of MDMA·HCl, fasting, read-out: AUC0-inf) was 3890 ng·h/mL. For the same molecule, the half-life ([1]; human, plasma, po, 120 mg, single 120 mg dose of MDMA·HCl, fasting, read-out: t1/2 (converted)) was 9.1 h, the Tmax ([1]; human, plasma, po, single 120 mg dose of MDMA·HCl, fasting, read-out: Tmax) was ≤ 2 h and the “plasma concentrations and PK parameters (Cmax, AUC0-t, AUC0-inf, AUC0-72, AUC% ext), fed vs fasted” value ([1]; single 120 mg MDMA HCl) was “not significantly different”. The Tmax ([1]; single 120 mg dose of MDMA·HCl, fasting) was 2.00 h, the “unbound maximum concentration (Cmax)” value ([1]; single 120 mg dose, estimated from Cmax 261 ng/ml and 51% protein binding) was 660 nM and the C-SSRS scores (healthy individuals) was “No abnormal C-SSRS scores”. The “inhibition of BSEP” value [2] was “not an inhibitor” and the “substrate of OATP1B1” value (OATP1B1) was “not a substrate”.
